{
  "source": "patent US11725011B2",
  "about": "“Bicyclic urea kinase inhibitors and uses thereof” (The Broad Institute, Inc., priority 2016, dated 2023)",
  "experiment_in_all_cases": "KINOMEscan",
  "type_in_all_cases": "binding",
  "conditions_in_all_cases": "1 uM",
  "key": {"[1]": {"molecular_target": "TLK1 (Homo sapiens (Human), UniProt Q9UKI8)"}, "[2]": {"molecular_target": "YANK1 (Homo sapiens (Human), UniProt Q8WU08)"}, "[3]": {"molecular_target": "PKN2 (Homo sapiens (Human), UniProt Q16513)"}, "[4]": {"molecular_target": "YES (Homo sapiens (Human), UniProt P07947)"}, "[5]": {"molecular_target": "TRKA (Homo sapiens (Human), UniProt P04629)", "sequence (P04629 33-796)": "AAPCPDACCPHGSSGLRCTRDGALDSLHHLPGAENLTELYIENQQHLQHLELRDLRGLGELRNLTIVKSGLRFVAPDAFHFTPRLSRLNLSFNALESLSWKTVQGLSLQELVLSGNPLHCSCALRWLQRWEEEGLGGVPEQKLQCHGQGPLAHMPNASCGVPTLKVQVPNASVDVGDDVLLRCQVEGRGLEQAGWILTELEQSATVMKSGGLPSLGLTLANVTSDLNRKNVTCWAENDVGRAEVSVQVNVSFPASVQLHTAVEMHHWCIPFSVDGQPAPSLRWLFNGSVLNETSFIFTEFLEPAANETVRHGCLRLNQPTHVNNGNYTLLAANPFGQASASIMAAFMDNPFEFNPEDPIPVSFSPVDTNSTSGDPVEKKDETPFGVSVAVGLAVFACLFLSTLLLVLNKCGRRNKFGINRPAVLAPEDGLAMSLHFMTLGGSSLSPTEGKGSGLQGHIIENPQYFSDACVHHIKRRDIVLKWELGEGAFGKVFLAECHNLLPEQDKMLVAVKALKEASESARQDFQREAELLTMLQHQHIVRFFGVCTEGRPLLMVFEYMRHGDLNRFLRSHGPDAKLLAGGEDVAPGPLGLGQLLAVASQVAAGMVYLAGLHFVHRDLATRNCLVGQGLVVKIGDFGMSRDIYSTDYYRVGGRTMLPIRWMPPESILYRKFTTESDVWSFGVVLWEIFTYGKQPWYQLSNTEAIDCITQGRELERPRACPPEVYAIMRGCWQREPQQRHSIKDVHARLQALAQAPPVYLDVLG"}, "[6]": {"molecular_target": "KIT (Homo sapiens (Human), UniProt P10721)"}, "[7]": {"molecular_target": "CSNK1G3 (Homo sapiens (Human), UniProt Q9Y6M4)"}, "[8]": {"molecular_target": "DYRK2 (Homo sapiens (Human), UniProt Q92630)"}, "[9]": {"molecular_target": "PLK3 (Homo sapiens (Human), UniProt Q9H4B4)"}, "[10]": {"molecular_target": "CDC2L2 (Homo sapiens (Human), UniProt Q9UQ88)"}, "[11]": {"molecular_target": "PLK2 (Homo sapiens (Human), UniProt Q9NYY3)"}, "[12]": {"molecular_target": "RSK4 (Kin.Dom.1-N-terminal) (Homo sapiens (Human), UniProt Q9UK32)"}, "[13]": {"molecular_target": "GCN2 (Kin.Dom.2, S808G) (Homo sapiens (Human), UniProt Q9P2K8, S808G)"}, "[14]": {"molecular_target": "CDK11 (Homo sapiens (Human), UniProt Q9BWU1)", "sequence (Q9BWU1 whole entry)": "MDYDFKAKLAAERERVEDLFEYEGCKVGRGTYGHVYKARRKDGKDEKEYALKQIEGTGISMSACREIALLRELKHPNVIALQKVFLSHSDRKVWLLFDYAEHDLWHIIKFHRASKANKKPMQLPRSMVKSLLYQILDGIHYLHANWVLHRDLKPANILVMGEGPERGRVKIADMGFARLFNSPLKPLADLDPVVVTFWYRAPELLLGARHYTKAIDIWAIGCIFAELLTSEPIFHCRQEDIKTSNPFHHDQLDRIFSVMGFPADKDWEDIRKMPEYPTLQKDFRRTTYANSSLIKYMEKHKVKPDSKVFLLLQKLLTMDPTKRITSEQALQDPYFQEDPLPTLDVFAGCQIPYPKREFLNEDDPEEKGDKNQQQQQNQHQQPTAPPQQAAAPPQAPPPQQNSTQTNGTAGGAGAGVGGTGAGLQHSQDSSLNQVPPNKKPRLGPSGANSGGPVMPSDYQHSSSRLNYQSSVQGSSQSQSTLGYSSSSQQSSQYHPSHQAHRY"}, "[15]": {"molecular_target": "GRK1 (Homo sapiens (Human), UniProt Q15835)"}, "[16]": {"molecular_target": "DYRK1B (Homo sapiens (Human), UniProt Q9Y463)", "sequence (Q9Y463 whole entry)": "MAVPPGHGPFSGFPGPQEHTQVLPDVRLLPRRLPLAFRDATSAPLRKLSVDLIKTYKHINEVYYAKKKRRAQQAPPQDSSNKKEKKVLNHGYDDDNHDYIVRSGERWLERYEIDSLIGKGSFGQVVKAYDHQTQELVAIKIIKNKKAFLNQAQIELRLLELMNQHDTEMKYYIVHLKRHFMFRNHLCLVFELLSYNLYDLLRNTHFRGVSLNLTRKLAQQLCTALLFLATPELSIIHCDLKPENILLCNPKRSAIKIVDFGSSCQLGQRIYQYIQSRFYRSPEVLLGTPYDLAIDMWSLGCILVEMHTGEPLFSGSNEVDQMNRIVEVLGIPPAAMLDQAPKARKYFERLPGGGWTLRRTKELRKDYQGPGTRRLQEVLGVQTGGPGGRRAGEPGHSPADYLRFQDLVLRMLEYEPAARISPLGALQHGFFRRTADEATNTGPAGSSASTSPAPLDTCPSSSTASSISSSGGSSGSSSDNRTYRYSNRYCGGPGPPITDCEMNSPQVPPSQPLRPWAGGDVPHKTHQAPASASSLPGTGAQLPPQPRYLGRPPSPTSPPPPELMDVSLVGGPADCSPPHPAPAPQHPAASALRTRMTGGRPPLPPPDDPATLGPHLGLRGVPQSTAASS"}, "[17]": {"molecular_target": "BRSK1 (Homo sapiens (Human), UniProt Q8TDC3)"}, "[18]": {"molecular_target": "SGK2 (Homo sapiens (Human), UniProt Q9HBY8)"}, "[19]": {"molecular_target": "SYK (Homo sapiens (Human), UniProt P43405)"}, "[20]": {"molecular_target": "ABL1 (Q252H)-phosphorylated (Homo sapiens (Human), UniProt P00519, Q252H)"}, "[21]": {"molecular_target": "ALK (L1196M) (Homo sapiens (Human), UniProt Q9UM73, L1196M)"}, "[22]": {"molecular_target": "PKAC-alpha (Homo sapiens (Human), UniProt P17612)"}, "[23]": {"molecular_target": "PDGFRB (Homo sapiens (Human), UniProt P09619)"}, "[24]": {"molecular_target": "CTK (Homo sapiens (Human), UniProt P42679)"}, "[25]": {"molecular_target": "PFTK1 (Homo sapiens (Human), UniProt O94921)"}, "[26]": {"molecular_target": "MRCKA (Homo sapiens (Human), UniProt Q5VT25)"}, "[27]": {"molecular_target": "CSNK1E (Homo sapiens (Human), UniProt P49674)"}, "[28]": {"molecular_target": "MKNK1 (Homo sapiens (Human), UniProt Q9BUB5)"}, "[29]": {"molecular_target": "RIPK1 (Homo sapiens (Human), UniProt Q13546)"}, "[30]": {"molecular_target": "TAOK3 (Homo sapiens (Human), UniProt Q9H2K8)", "sequence (Q9H2K8 whole entry)": "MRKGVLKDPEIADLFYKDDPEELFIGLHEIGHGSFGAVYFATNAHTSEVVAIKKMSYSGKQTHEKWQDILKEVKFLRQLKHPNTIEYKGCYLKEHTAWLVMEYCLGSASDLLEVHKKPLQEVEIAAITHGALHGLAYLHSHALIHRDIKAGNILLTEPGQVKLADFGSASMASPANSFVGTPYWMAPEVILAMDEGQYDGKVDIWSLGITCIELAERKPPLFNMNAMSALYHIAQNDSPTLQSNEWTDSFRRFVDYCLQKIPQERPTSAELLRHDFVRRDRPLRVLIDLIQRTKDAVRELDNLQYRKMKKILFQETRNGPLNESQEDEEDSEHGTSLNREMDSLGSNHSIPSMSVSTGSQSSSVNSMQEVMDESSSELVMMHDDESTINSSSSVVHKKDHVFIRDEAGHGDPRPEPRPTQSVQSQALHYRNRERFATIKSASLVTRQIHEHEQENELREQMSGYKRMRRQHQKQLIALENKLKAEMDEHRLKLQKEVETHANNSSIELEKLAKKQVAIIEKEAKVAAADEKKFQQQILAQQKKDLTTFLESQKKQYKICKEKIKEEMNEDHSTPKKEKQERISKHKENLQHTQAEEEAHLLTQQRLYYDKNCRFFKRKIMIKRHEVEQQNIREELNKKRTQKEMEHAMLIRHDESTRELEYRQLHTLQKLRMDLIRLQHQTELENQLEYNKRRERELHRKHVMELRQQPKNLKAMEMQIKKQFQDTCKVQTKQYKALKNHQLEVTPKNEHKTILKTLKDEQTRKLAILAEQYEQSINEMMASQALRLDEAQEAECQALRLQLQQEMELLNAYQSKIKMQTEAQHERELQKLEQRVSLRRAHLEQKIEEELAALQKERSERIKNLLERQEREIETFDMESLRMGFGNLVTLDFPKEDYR"}, "[31]": {"molecular_target": "CHEK1 (Homo sapiens (Human), UniProt O14757)"}, "[32]": {"molecular_target": "NDR1 (Homo sapiens (Human), UniProt Q15208)"}, "[33]": {"molecular_target": "ABL1 (E255K)-phosphorylated (Homo sapiens (Human), UniProt P00519, E255K)"}, "[34]": {"molecular_target": "PRKCI (Homo sapiens (Human), UniProt P41743)"}, "[35]": {"molecular_target": "RET (Homo sapiens (Human), UniProt P07949)", "sequence (P07949 29-1114)": "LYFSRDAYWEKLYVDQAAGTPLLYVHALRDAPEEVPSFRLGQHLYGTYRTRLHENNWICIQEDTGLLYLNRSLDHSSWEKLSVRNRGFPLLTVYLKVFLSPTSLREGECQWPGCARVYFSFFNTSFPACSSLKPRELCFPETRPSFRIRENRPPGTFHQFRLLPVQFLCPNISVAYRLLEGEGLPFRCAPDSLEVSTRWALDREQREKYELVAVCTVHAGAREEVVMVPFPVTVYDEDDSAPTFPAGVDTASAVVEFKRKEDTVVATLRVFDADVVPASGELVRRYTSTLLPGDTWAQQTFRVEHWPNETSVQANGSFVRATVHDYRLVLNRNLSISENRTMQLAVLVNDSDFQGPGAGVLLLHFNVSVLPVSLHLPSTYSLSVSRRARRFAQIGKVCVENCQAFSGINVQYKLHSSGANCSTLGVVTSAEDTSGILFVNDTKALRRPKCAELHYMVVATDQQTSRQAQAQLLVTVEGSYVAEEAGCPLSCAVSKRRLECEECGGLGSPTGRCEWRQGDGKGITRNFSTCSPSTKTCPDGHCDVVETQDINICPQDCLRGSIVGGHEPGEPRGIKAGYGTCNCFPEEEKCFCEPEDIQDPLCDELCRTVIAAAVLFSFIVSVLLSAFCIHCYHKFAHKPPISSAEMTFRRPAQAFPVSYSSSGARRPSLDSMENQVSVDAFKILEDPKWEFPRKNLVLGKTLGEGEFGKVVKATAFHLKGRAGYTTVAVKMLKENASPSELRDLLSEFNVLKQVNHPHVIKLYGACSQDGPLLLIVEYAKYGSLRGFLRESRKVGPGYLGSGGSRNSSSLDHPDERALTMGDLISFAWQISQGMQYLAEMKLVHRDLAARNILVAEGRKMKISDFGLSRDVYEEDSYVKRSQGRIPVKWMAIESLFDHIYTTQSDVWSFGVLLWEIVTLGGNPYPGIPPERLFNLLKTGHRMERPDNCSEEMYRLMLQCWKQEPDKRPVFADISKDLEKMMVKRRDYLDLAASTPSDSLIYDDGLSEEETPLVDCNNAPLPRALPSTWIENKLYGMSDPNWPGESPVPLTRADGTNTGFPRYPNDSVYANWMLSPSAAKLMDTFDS"}, "[36]": {"molecular_target": "MST2 (Homo sapiens (Human), UniProt Q13188)", "sequence (Q13188 whole entry)": "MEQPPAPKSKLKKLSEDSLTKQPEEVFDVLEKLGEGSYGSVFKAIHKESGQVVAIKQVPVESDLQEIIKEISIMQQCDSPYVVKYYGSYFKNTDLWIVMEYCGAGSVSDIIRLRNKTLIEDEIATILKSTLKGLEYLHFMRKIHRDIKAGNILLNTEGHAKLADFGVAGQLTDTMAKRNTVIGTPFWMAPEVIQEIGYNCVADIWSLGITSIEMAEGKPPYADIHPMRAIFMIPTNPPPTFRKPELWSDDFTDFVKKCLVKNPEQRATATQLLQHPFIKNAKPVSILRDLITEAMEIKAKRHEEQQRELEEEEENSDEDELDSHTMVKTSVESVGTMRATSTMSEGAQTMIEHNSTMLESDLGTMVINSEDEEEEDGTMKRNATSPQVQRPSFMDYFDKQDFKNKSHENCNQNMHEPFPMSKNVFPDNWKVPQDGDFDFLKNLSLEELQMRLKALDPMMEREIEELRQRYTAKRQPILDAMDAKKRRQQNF"}, "[37]": {"molecular_target": "OSR1 (Homo sapiens (Human), UniProt O95747)"}, "[38]": {"molecular_target": "PRKG2 (Homo sapiens (Human), UniProt Q13237)"}, "[39]": {"molecular_target": "MLK3 (Homo sapiens (Human), UniProt Q16584)"}, "[40]": {"molecular_target": "MST1 (Homo sapiens (Human), UniProt Q13043)", "sequence (Q13043 whole entry)": "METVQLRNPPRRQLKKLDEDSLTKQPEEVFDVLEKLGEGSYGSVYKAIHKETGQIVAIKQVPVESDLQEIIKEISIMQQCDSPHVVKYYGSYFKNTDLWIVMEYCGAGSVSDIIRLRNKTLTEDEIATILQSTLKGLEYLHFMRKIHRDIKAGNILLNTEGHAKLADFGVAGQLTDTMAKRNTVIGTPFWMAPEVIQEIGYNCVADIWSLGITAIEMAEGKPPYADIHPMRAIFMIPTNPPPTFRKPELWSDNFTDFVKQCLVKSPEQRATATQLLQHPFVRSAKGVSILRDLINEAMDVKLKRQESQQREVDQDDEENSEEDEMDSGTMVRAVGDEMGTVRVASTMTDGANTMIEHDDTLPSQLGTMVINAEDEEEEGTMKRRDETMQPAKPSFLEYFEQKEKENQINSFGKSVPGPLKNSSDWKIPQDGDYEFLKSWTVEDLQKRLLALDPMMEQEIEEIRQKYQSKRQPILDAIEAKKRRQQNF"}, "[41]": {"molecular_target": "BLK (Homo sapiens (Human), UniProt P51451)"}},
  "data": [
    {"smiles": "COc1ccc(N2C(=O)N(c3c(C)cccc3C)Cc3cnc(Nc4ccc(N5CCN(C)CC5)cc4)nc32)c(OC)c1", "note": "[HG-11-136-01]", "values": [
      {"measurement": "KINOMEscan TLK1", "setting": "[1]", "value": 76},
      {"measurement": "KINOMEscan YANK1", "setting": "[2]", "value": 0.2},
      {"measurement": "KINOMEscan PKN2", "setting": "[3]", "value": 94},
      {"measurement": "KINOMEscan YES", "setting": "[4]", "value": 0.05},
      {"measurement": "KINOMEscan TRKA", "setting": "[5]", "value": 41},
      {"measurement": "KINOMEscan KIT", "setting": "[6]", "value": 0},
      {"measurement": "KINOMEscan CSNK1G3", "setting": "[7]", "value": 84},
      {"measurement": "KINOMEscan DYRK2", "setting": "[8]", "value": 5},
      {"measurement": "KINOMEscan PLK3", "setting": "[9]", "value": 31},
      {"measurement": "KINOMEscan CDC2L2", "setting": "[10]", "value": 83},
      {"measurement": "KINOMEscan PLK2", "setting": "[11]", "value": 21},
      {"measurement": "KINOMEscan RSK4 (Kin.Dom.1-N-terminal)", "setting": "[12]", "value": 39},
      {"measurement": "KINOMEscan GCN2 (Kin.Dom.2, S808G)", "setting": "[13]", "value": 0.75},
      {"measurement": "KINOMEscan CDK11", "setting": "[14]", "value": 89},
      {"measurement": "KINOMEscan GRK1", "setting": "[15]", "value": 77},
      {"measurement": "KINOMEscan DYRK1B", "setting": "[16]", "value": 60},
      {"measurement": "KINOMEscan BRSK1", "setting": "[17]", "value": 100},
      {"measurement": "KINOMEscan SGK2", "setting": "[18]", "value": 76},
      {"measurement": "KINOMEscan SYK", "setting": "[19]", "value": 1.2},
      {"measurement": "KINOMEscan ABL1 (Q252H)-phosphorylated", "setting": "[20]", "value": 0.25},
      {"measurement": "KINOMEscan ALK (L1196M)", "setting": "[21]", "value": 8.2},
      {"measurement": "KINOMEscan PKAC-alpha", "setting": "[22]", "value": 85},
      {"measurement": "KINOMEscan PDGFRB", "setting": "[23]", "value": 0},
      {"measurement": "KINOMEscan CTK", "setting": "[24]", "value": 33},
      {"measurement": "KINOMEscan PFTK1", "setting": "[25]", "value": 100},
      {"measurement": "KINOMEscan MRCKA", "setting": "[26]", "value": 99},
      {"measurement": "KINOMEscan CSNK1E", "setting": "[27]", "value": 59},
      {"measurement": "KINOMEscan MKNK1", "setting": "[28]", "value": 85},
      {"measurement": "KINOMEscan RIPK1", "setting": "[29]", "value": 35},
      {"measurement": "KINOMEscan TAOK3", "setting": "[30]", "value": 1.8},
      {"measurement": "KINOMEscan CHEK1", "setting": "[31]", "value": 82},
      {"measurement": "KINOMEscan NDR1", "setting": "[32]", "value": 46},
      {"measurement": "KINOMEscan ABL1 (E255K)-phosphorylated", "setting": "[33]", "value": 0.4},
      {"measurement": "KINOMEscan PRKCI", "setting": "[34]", "value": 63},
      {"measurement": "KINOMEscan RET", "setting": "[35]", "value": 0},
      {"measurement": "KINOMEscan MST2", "setting": "[36]", "value": 0.75},
      {"measurement": "KINOMEscan OSR1", "setting": "[37]", "value": 49},
      {"measurement": "KINOMEscan PRKG2", "setting": "[38]", "value": 92},
      {"measurement": "KINOMEscan MLK3", "setting": "[39]", "value": 28},
      {"measurement": "KINOMEscan MST1", "setting": "[40]", "value": 2.1},
      {"measurement": "KINOMEscan BLK", "setting": "[41]", "value": 0.1}
    ]}
  ]
}
